Patent US9763904B2, “Position-specific asymmetric deuterium enriched catecholamine derivatives and medicaments comprising said compounds” (Teva Pharmaceuticals International GmbH, priority 2013, dated 2017)
“Also recorded” adds a separate entry of the source. Like-named read-outs stand apart in the source and are kept apart here.

Tests used:
[1] = system: 6-hydroxydopamine (6-OHDA) rodent model of Parkinson's disease; experiment: Drug induced contralateral rotations (anti-Parkinson effect, motor performance) in unilaterally 6-OHDA lesioned rats; type: in vivo, Sprague-Dawley rats; conditions: 6-OHDA rats; for Motor Effect [% of L-DOPA effect]: at equipotent dose, contralateral rotations; for Equipotent Dose [% of L-DOPA dose]: dose causing the same effect on motor performance as L-DOPA; for effect on motor performance (in words): comparison between test items
[2] = system: 6-hydroxydopamine (6-OHDA) rodent model of Parkinson's disease; experiment: Dyskinesia: scoring of abnormal involuntary movements (limb, axial, orolingual) after repeated treatment in 6-OHDA lesioned rats; type: in vivo, Sprague-Dawley rats
From the text: The effects on motor performance and the development of dyskinesia following administration of deuterated L-DOPA derivatives with different deuterium enrichment at specific position of the side chain have been compared among each other and to L-DOPA in the 6-hydroxydopamine (6-OHDA) rodent model of Parkinson's disease.
Female Sprague-Dawley rats weighing approximately 225 g were housed on a 12-hour light/dark cycle and kept on standard laboratory diet and water ad libitum. The rats were lesioned by unilateral injection of the neurotoxin 6-OHDA. The lesion was validated by measuring the rotational activity after i.p. injection of 2.5 mg/kg D-amphetamine.
Dyskinesia was evaluated after repeated treatment by scoring the animals for abnormal involuntary movements. The rats were scored, by an observer blinded to the experimental design for limb, axial and orolingual involuntary movements.
The equipotent dose as percent of L-DOPA dose that caused the same effect on motor performance and dyskinesia observed following repeated administration of these doses is shown in Table 2.

striatal dopamine = conditions: compared to L-DOPA, prior art, cited from earlier work
Parkinson models = conditions: cited from earlier work
[3] = female, Sprague-Dawley, rat, in vivo
[4] = 6-OHDA rats, repeated administration, equipotent dose
[5] = repeated administration of equipotent doses, 6-OHDA rats

Row | Molecule | Motor Effect [% of L-DOPA effect] [1] | Equipotent Dose [% of L-DOPA dose] [1] | Dyskinesia [% of dyskinesia caused by L-DOPA] [2, 3] | effect on motor performance (in words) [1] | dyskinesia at equipotent dose (in words) [2, 4] | Dyskinesia [% of dyskinesia caused by L-DOPA] [2, 5] | striatal dopamine levels / output (in words) (striatal dopamine; listed as α, β-D2-L-DOPA) | dyskinesia at equipotent dose (in words) ([2]; rat, in vivo) | striatal dopamine levels / output (in words) (striatal dopamine; listed as α, β,β-D3-L-DOPA) | striatal dopamine levels / output (in words) (striatal dopamine; listed as α,β,β-D3-L-DOPA) | equi-effective dose compared to L-DOPA (Parkinson models; Parkinson models, literature) | motor activity (in words) (Parkinson models; compared to L-DOPA, several Parkinson models)
1 | N[C@@H](Cc1ccc(O)c(O)c1)C(=O)O [Test Item A, L-2-amino-3-(3,4-dihydroxyphenyl) propionic acid] | 100% of L-DOPA effect | 100% of L-DOPA dose | 100% of dyskinesia caused by L-DOPA | – | – | – | – | – | – | – | – | –
2 | [2H][C@@H](c1ccc(O)c(O)c1)[C@]([2H])(N)C(=O)O [Test Item B, S/S-2-amino-2,3-dideutero-3-(3,4-dihydroxyphenyl) propionic acid] | 100% of L-DOPA effect | 30% of L-DOPA dose | – | significantly greater compared to α, β, β-D3-L-DOPA [C] and L-DOPA [A] | not reduced in comparison to L-DOPA | 100% of dyskinesia caused by L-DOPA | increase and prolong the output of striatal dopamine significantly more than L-DOPA; also recorded: highest striatal dopamine concentrations | – | – | – | – | –
3 | [2H]C([2H])(c1ccc(O)c(O)c1)[C@]([2H])(N)C(=O)O [Test Item C, L-2-amino-2,3,3-trideutero-3-(3,4-dihydroxyphenyl) propionic acid] | 100% of L-DOPA effect | 60% of L-DOPA dose | 50% of dyskinesia caused by L-DOPA | – | – | – | – | significantly less dyskinesia than L-DOPA | increase and prolong the output of striatal dopamine significantly more than L-DOPA | higher longer-lasting striatal dopamine levels than L-DOPA | about 60% | improved motor activity compared to L-DOPA
4 | L-2-amino-2,3,3*-trideutero-3-(3,4-dihydroxyphenyl) propionic acid [Test Item D] | 100% of L-DOPA effect | 35% of L-DOPA dose | – | motor effect equivalent to the di-deuterated α, β-D2-L-DOPA [B] | reduction of dyskinesia as the triple-deuterated α, β, β-D3-L-DOPA [C] | 50% of dyskinesia caused by L-DOPA | – | – | – | – | – | –
